Assay results as given in paper PMC4035740 (The Journal of General Physiology, 2014).
Numbering of substitutions follows the chain as printed. Where two headings read alike, the source gives them in different places.

Columns and labels:
Type in all cases: cell-based
rat P2X2 WT = target: T1, rat P2X2 WT (Rattus norvegicus, UniProt P49653); assay: ATP dose–response, two-electrode voltage clamp in Xenopus oocytes, WT
T1 sequence (P49653 1-472): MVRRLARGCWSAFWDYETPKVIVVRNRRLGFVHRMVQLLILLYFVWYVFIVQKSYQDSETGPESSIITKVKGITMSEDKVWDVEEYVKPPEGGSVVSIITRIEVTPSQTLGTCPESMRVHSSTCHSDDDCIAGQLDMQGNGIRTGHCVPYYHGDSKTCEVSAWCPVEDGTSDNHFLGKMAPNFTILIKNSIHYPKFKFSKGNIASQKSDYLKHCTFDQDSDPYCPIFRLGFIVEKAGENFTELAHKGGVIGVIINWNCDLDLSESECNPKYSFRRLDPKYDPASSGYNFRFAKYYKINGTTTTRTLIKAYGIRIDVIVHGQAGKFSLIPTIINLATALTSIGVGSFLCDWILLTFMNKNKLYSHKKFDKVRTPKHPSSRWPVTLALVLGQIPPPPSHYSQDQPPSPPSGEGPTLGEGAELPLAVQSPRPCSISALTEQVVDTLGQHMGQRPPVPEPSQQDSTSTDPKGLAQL

[1] = target: T2, rat P2X2 tandem trimer WT–WT–WT (Rattus norvegicus, UniProt P49653); assay: ATP dose–response, two-electrode voltage clamp in Xenopus oocytes, WT–WT–WT
T2 sequence (P49653 1-472) 1: T1 sequence (P49653 1-472)
T2 sequence (P49653 1-472) 2: T1 sequence (P49653 1-472)
T2 sequence (P49653 1-472) 3: T1 sequence (P49653 1-472)

[2] = target: T3, rat P2X2 tandem trimer K308A–WT–WT (Rattus norvegicus, UniProt P49653, K308A); assay: ATP dose–response, two-electrode voltage clamp in Xenopus oocytes, K308A–WT–WT
T3 sequence (P49653 1-472 K308A): T1 sequence (P49653 1-472) with K308A
T3 sequence (P49653 1-472) 2: T1 sequence (P49653 1-472)
T3 sequence (P49653 1-472) 3: T1 sequence (P49653 1-472)

[3] = target: T4, rat P2X2 tandem trimer WT–K308A–WT (Rattus norvegicus, UniProt P49653, K308A); assay: ATP dose–response, two-electrode voltage clamp in Xenopus oocytes, WT–K308A–WT
T4 sequence (P49653 1-472) 1: T1 sequence (P49653 1-472)
T4 sequence (P49653 1-472 K308A): T1 sequence (P49653 1-472) with K308A
T4 sequence (P49653 1-472) 3: T1 sequence (P49653 1-472)

[4] = target: T5, rat P2X2 tandem trimer WT–WT–K308A (Rattus norvegicus, UniProt P49653, K308A); assay: ATP dose–response, two-electrode voltage clamp in Xenopus oocytes, WT–WT–K308A
T5 sequence (P49653 1-472) 1: T1 sequence (P49653 1-472)
T5 sequence (P49653 1-472) 2: T1 sequence (P49653 1-472)
T5 sequence (P49653 1-472 K308A): T1 sequence (P49653 1-472) with K308A

rat P2X2 D315A = target: T6, rat P2X2 D315A (Rattus norvegicus, UniProt P49653, D315A); assay: ATP dose–response, two-electrode voltage clamp in Xenopus oocytes, D315A; conditions: at −160 mV
T6 sequence (P49653 1-472 D315A): T1 sequence (P49653 1-472) with D315A

[5] = target: T7, rat P2X2 tandem trimer D315A–D315A–D315A (Rattus norvegicus, UniProt P49653, D315A); conditions: at −160 mV
T7 sequence (P49653 1-472 D315A) 1: T1 sequence (P49653 1-472) with D315A
T7 sequence (P49653 1-472 D315A) 2: T1 sequence (P49653 1-472) with D315A
T7 sequence (P49653 1-472 D315A) 3: T1 sequence (P49653 1-472) with D315A

[6] = target: T8, rat P2X2 tandem trimer D315A–D315A–WT (Rattus norvegicus, UniProt P49653, D315A); conditions: at −160 mV
T8 sequence (P49653 1-472 D315A) 1: T1 sequence (P49653 1-472) with D315A
T8 sequence (P49653 1-472 D315A) 2: T1 sequence (P49653 1-472) with D315A
T8 sequence (P49653 1-472): T1 sequence (P49653 1-472)

[7] = target: T9, rat P2X2 tandem trimer D315A–WT–WT (Rattus norvegicus, UniProt P49653, D315A); assay: ATP dose–response, two-electrode voltage clamp in Xenopus oocytes, D315A–WT–WT
T9 sequence (P49653 1-472 D315A): T1 sequence (P49653 1-472) with D315A
T9 sequence (P49653 1-472) 2: T1 sequence (P49653 1-472)
T9 sequence (P49653 1-472) 3: T1 sequence (P49653 1-472)

[8] = target: T10, rat P2X2 tandem trimer T339S–T339S–T339S (Rattus norvegicus, UniProt P49653, T339S)
T10 sequence (P49653 1-472 T339S) 1: T1 sequence (P49653 1-472) with T339S
T10 sequence (P49653 1-472 T339S) 2: T1 sequence (P49653 1-472) with T339S
T10 sequence (P49653 1-472 T339S) 3: T1 sequence (P49653 1-472) with T339S

[9] = target: T11, rat P2X2 tandem trimer WT–T339S–T339S (Rattus norvegicus, UniProt P49653, T339S)
T11 sequence (P49653 1-472): T1 sequence (P49653 1-472)
T11 sequence (P49653 1-472 T339S) 2: T1 sequence (P49653 1-472) with T339S
T11 sequence (P49653 1-472 T339S) 3: T1 sequence (P49653 1-472) with T339S

[10] = target: T12, rat P2X2 tandem trimer WT–T339S–WT (Rattus norvegicus, UniProt P49653, T339S); assay: ATP dose–response, two-electrode voltage clamp in Xenopus oocytes, WT–T339S–WT
T12 sequence (P49653 1-472) 1: T1 sequence (P49653 1-472)
T12 sequence (P49653 1-472 T339S): T1 sequence (P49653 1-472) with T339S
T12 sequence (P49653 1-472) 3: T1 sequence (P49653 1-472)

rat P2X2 K308A = target: T13, rat P2X2 K308A (Rattus norvegicus, UniProt P49653, K308A); assay: ATP activation of the K308A mutant channel; conditions: K308A mutation, very high concentrations of ATP (>3 mM)
T13 sequence (P49653 1-472 K308A): T1 sequence (P49653 1-472) with K308A

[11] = target: T14, rat P2X2 tandem trimer K308A&K69A–WT–WT (Rattus norvegicus, UniProt P49653, K308A/K69A); assay: Hetero-assembly test, activation by ATP, K308A&K69A–WT–WT; conditions: 1 mM [ATP], days 1 and 2 after RNA injection
T14 sequence (P49653 1-472 K69A/K308A): T1 sequence (P49653 1-472) with K69A, K308A
T14 sequence (P49653 1-472) 2: T1 sequence (P49653 1-472)
T14 sequence (P49653 1-472) 3: T1 sequence (P49653 1-472)

[12] = target: T15, rat P2X2 tandem trimer WT–K308A&K69A–WT (Rattus norvegicus, UniProt P49653, K308A/K69A); assay: Hetero-assembly test, activation by ATP, WT–K308A&K69A–WT; conditions: 1 mM [ATP], days 1 and 2 after RNA injection
T15 sequence (P49653 1-472) 1: T1 sequence (P49653 1-472)
T15 sequence (P49653 1-472 K69A/K308A): T1 sequence (P49653 1-472) with K69A, K308A
T15 sequence (P49653 1-472) 3: T1 sequence (P49653 1-472)

[13] = target: T16, rat P2X2 tandem trimer WT–WT–K308A&K69A (Rattus norvegicus, UniProt P49653, K308A/K69A); assay: Hetero-assembly test, activation by ATP, WT–WT–K308A&K69A; conditions: 1 mM [ATP], days 1 and 2 after RNA injection
T16 sequence (P49653 1-472) 1: T1 sequence (P49653 1-472)
T16 sequence (P49653 1-472) 2: T1 sequence (P49653 1-472)
T16 sequence (P49653 1-472 K69A/K308A): T1 sequence (P49653 1-472) with K69A, K308A

EC50 (rat P2X2 WT): 14.5 ± 1.2 µM
Hill coefficient (rat P2X2 WT; WT, at −160 mV, Xenopus oocytes, mean ± SEM): 1.7 ± 0.2
EC50 [1]: 19.1 ± 2 µM
EC50 [2]: 42.3 ± 2.2 µM
Hill coefficient ([2]; K308A–WT–WT, at −160 mV, mean ± SEM): 1.7 ± 0.18
EC50 [3]: 22.9 ± 1.8 µM
EC50 [4]: 33.3 ± 1.65 µM
Hill coefficient ([4]; WT–WT–K308A, at −160 mV, mean ± SEM): 1.6 ± 1.4
EC50 (rat P2X2 D315A; EC50 (1), first phase of biphasic dose–response): 1.2 ± 0.6 µM
EC50 (rat P2X2 D315A; EC50 (2), second phase of biphasic dose–response): 89.1 ± 1.48 µM
Hill (1) (rat P2X2 D315A; first phase): 2.4 ± 0.7
EC50 ([5]; EC50 (1), first phase): 1.5 ± 0.8 µM
EC50 ([5]; EC50 (2), second phase): 130 ± 5 µM
Hill (1) ([5]; first phase): 3.7 ± 0.6
EC50 ([6]; EC50 (1), first phase): 3.15 ± 0.9 µM
EC50 ([6]; EC50 (2), second phase): 794 ± 12 µM
EC50 [7]: 6.02 ± 1.1 µM
Hill ([7]; D315A–WT–WT, at −160 mV): 1.4 ± 0.1
EC50 [8]: 2.4 ± 0.4 µM
Hill ([8]; T339S–T339S–T339S, at −160 mV): 1.5 ± 0.3
EC50 [9]: 6 ± 0.4 µM
Hill ([9]; WT–T339S–T339S, at −160 mV): 1.5 ± 0.2
EC50 [10]: 12.2 ± 1.2 µM
Hill ([10]; WT–T339S–WT, at −160 mV): 1.5 ± 0.9
channel response to ATP (rat P2X2 K308A): unresponsive
activation in response to ATP [11]: did not show any prominent activation
activation in response to ATP [12]: did not show any prominent activation
activation in response to ATP [13]: did not show any prominent activation
SMILES: Nc1ncnc2c1ncn2[C@@H]1O[C@H](COP(=O)(O)OP(=O)(O)OP(=O)(O)O)[C@@H](O)[C@H]1O [ATP, adenosine triphosphate]
